Test results taken from patent US20230091225A1, “Bifunctional chimeric heterocyclic compounds for targeted degradation of androgen receptors and use thereof” (HINOVA PHARMACEUTICALS INC., priority 2019, published 2023).

Test system: LNCaP/AR cells
Experiment: Inhibition of proliferation of LNCaP/AR prostate cancer cells (CCK-8)
Type: cell-based
Details: 144 h; proliferation of LNCap/AR cells, 6 days, CCK-8; read-out: IC50

Molecule	IC50
N#Cc1ccc(O[C@H]2CC[C@H](N3Cc4cc(N5CCC(CN6CCN(c7cc8c(cc7F)C(=O)N(C7CCC(=O)NC7=O)C8)CC6)CC5)ncc4C3=O)CC2)cc1Cl (some centres unmarked) [Compound 313]	< 100 nM
Cc1ncsc1-c1ccc([C@H](C)NC(=O)[C@@H]2C[C@@H](O)CN2C(=O)[C@@H](NC(=O)COCCCCC#Cc2ccc3c(c2)CN([C@H]2C(C)(C)[C@H](Oc4ccc(C#N)c(Cl)c4)C2(C)C)C3=O)C(C)(C)C)cc1 [Compound 29]	< 100 nM
Cc1ncsc1-c1ccc([C@H](C)NC(=O)[C@@H]2C[C@@H](O)CN2C(=O)[C@@H](NC(=O)COCCCCCNc2ccc3c(c2)CN([C@H]2C(C)(C)[C@H](Oc4ccc(C#N)c(Cl)c4)C2(C)C)C3=O)C(C)(C)C)cc1 [Compound 411]	< 100 nM
[2H]C([2H])([2H])N(C(=O)c1ccc(N2CCC(CN3CCN(c4cc5c(cc4F)CN(C4CCC(=O)NC4=O)C5=O)CC3)CC2)nc1)[C@H]1CC[C@H](Oc2ccc(C#N)c(Cl)c2)CC1 (some centres unmarked) [Compound 306, N-((1r,4r)-4-(3-chloro-4-cyanophenoxy)cyclohexyl)-6-(4-((4-(2-(2,6-dioxopiperidin-3-yl)-6-fluoro-3-oxoisoindol-5-yl)piperazin-1-yl)methyl)piperidin-1-yl)-N-deuteromethylnicotinamide]	> 1000 nM
Cc1ncsc1-c1ccc([C@H](C)NC(=O)[C@@H]2C[C@@H](O)CN2C(=O)[C@@H](NC(=O)COCCCCCCc2ccc3c(c2)CN([C@H]2C(C)(C)[C@H](Oc4ccc(C#N)c(Cl)c4)C2(C)C)C3=O)C(C)(C)C)cc1 [Compound 408, (2S,4R)-1-((S)-2-(2-((6-(2-((1r,3r)-3-(3-chloro-4-cyanophenoxy)-2,2,4,4-tetramethylcyclobutyl)-1-oxoisoindolin-5-yl)hexyl)oxy)acetamide)-3,3-dimethylbutyryl)-4-hydroxy-N-((S)-1-(4-(4-methylthiazol-5-yl)phenyl)ethyl) pyrrolidine-2-carboxamide]	100 to 500 nM
N#Cc1ccc(O[C@H]2CC[C@H](N3Cc4cc(N5CCC(CN6CCN(c7ccc8c(c7)CN(C7CCC(=O)NC7=O)C8=O)CC6)CC5)ncc4C3=O)CC2)cc1Cl (some centres unmarked) [Compound 312]	100 to 500 nM
Cc1ncsc1-c1ccc([C@H](C)NC(=O)[C@@H]2C[C@@H](O)CN2C(=O)[C@@H](NC(=O)COCCCCC#Cc2ccc(C(=O)N[C@H]3C(C)(C)[C@H](Oc4ccc(C#N)c(Br)c4)C3(C)C)cc2)C(C)(C)C)cc1 [Compound 404]	< 100 nM
CC(=O)O[C@@H]1C[C@@H](C(=O)N[C@@H](C)c2ccc(-c3scnc3C)cc2)N(C(=O)[C@@H](NC(=O)COCC2CCN(c3ccc4c(c3)CN([C@H]3C(C)(C)[C@H](Oc5ccc(C#N)c(Cl)c5)C3(C)C)C4=O)CC2)C(C)(C)C)C1 [Compound 410]	< 100 nM
CC(=O)O[C@@H]1C[C@@H](C(=O)N[C@@H](C)c2ccc(-c3scnc3C)cc2)N(C(=O)[C@@H](NC(=O)COCCCCCNc2ccc3c(c2)CN([C@H]2C(C)(C)[C@H](Oc4ccc(C#N)c(Cl)c4)C2(C)C)C3=O)C(C)(C)C)C1 [Compound 412]	< 100 nM
[2H]C1([2H])c2cc(C#CCCCOCC(=O)N[C@H](C(=O)N3C[C@H](O)C[C@H]3C(=O)N[C@@H](C)c3ccc(-c4scnc4C)cc3)C(C)(C)C)ccc2C(=O)N1[C@H]1C(C)(C)[C@H](Oc2ccc(C#N)c(Cl)c2)C1(C)C [Compound 403]	< 100 nM
CC1(C)[C@H](Oc2ccc(C#N)c(Cl)c2)C(C)(C)[C@H]1N1Cc2cc(C#Cc3cnn(C4CN(c5cc6c(cc5F)C(=O)N(C5CCC(=O)NC5=O)C6=O)C4)c3)ccc2C1=O (some centres unmarked) [Compound 45]	> 1000 nM

Same assay, conditions: LNCaP/AR, 144 h

Molecule	IC50
Cc1ncsc1-c1ccc([C@H](C)NC(=O)[C@@H]2C[C@@H](O)CN2C(=O)[C@@H](NC(=O)COCCOC(C)C#Cc2ccc3c(c2)CN([C@H]2C(C)(C)[C@H](Oc4ccc(C#N)c(Cl)c4)C2(C)C)C3=O)C(C)(C)C)cc1 (some centres unmarked) [Compound 37]	< 100 nM
N#Cc1ccc(O[C@H]2CC[C@H](N3Cc4cc(N5CCC(CN6CCN(c7cc8c(cc7F)C(=O)N(C7CCC(=O)NC7=O)C8=O)CC6)CC5)ncc4C3=O)CC2)cc1Cl (some centres unmarked) [Compound 311]	> 1000 nM

Same assay, conditions: proliferation of LNCap/AR cells, 6 days, CCK-8; read-out: IC50

Molecule	IC50
Cc1ncsc1-c1ccc([C@H](C)NC(=O)[C@@H]2C[C@@H](O)CN2C(=O)[C@@H](NC(=O)COCCCCn2cc(-c3ccc4c(c3)CN([C@H]3C(C)(C)[C@H](Oc5ccc(C#N)c(Cl)c5)C3(C)C)C4=O)nn2)C(C)(C)C)cc1 [Compound 30, (2s,4r)-1-((s)-2-(2-(4-(4-(2-((1r,3r)-3-(3-chloro-4-cyanophenoxy)-2,2,4,4-tetramethylcyclobutyl)-1-oxoisobutanol-5-yl)-1H-1,2,3-triazol-1-yl)butoxy)acetamido)-3,3-dimethylbutyryl)-4-hydroxy-N-((S)-1-(4-(4-methylthiazol-5-yl)phenyl)ethyl)pyrrolidine-2-carboxamide]	100 to 500 nM
Cc1ncsc1-c1ccc([C@H](C)NC(=O)[C@@H]2C[C@@H](O)CN2C(=O)[C@@H](NC(=O)C2(OCCCCC#Cc3ccc4c(c3)CN(C3C(C)(C)C(Oc5ccc(C#N)c(Cl)c5)C3(C)C)C4=O)CC2)C(C)(C)C)cc1 (some centres unmarked) [Compound 41]	< 100 nM
(2R,4R)-1-((S)-2-(2-((6-(4-(((1r,3r)-3-(3-chloro-4-cyanophenoxy)-2,2,4,4-tetramethylcyclobutyl)(methoxy)benzamido)hex-5-yn-1-)oxy)acetamido)-3,3-dimethylbutyryl)-4-hydroxy-N-((S)-1-(4-(4-methylthiazol-5-)phenyl)ethyl) tetrahydropyrrole-2-amide [Compound 435]	500 to 1000 nM
Cc1ncsc1-c1ccc([C@H](C)NC(=O)[C@@H]2C[C@@H](O)CN2C(=O)[C@@H](NC(=O)C2(C(=O)NCCCC#Cc3ccc4c(c3)CN(C3C(C)(C)C(Oc5ccc(C#N)c(Cl)c5)C3(C)C)C4=O)CC2)C(C)(C)C)cc1 (some centres unmarked) [Compound 25]	< 100 nM
CC1(C)C(Oc2ccc(C#N)c(Cl)c2)C(C)(C)C1N1Cc2nc(N3CCC(CN4CCN(c5ccc6c(c5)C(=O)N([C@@H]5CCC(=O)NC5=O)C6=O)CC4)CC3)ccc2C1=O (some centres unmarked) [Compound 202, 2-chloro-4-((1r,3r)-3-(2-(4-((4-(2,6-dioxopiperidin-3-yl-1,3-dioxoisoindolin-5-yl)piperazin-1-yl)methyl)piperidin-1-yl)-5-oxo-5,7-dihydro-6H-pyrrolo[3,4-b]pyridin-6-yl)-2,2,4,4-tetramethylcyclobutoxy)benzonitrile]	100 to 500 nM
CN1C(=O)CCC(N2Cc3cc(F)c(N4CCN(CC5CCN(c6ccc7c(n6)CN(C6CCC(Oc8ccc(C#N)c(Cl)c8)CC6)C7=O)CC5)CC4)cc3C2=O)C1=O (centres unmarked) [Compound 307, 2-chloro-4-((1r,4r)-4-(2-(4-((4-(6-fluoro-2-(1-methyl-2,6-dioxopiperidin-3-yl)-3-oxoisoindolin-5-yl)piperazin-1-yl)methyl)piperidin-1-yl)-5-oxo-5H-pyrrolo[3,4-b]pyridin-6(7H)-yl)cyclohexyl)oxy)benzonitrile]	500 to 1000 nM

Molecular target: T1, androgen receptor (AR) (Homo sapiens, UniProt P10275)
T1 sequence (P10275 1-920): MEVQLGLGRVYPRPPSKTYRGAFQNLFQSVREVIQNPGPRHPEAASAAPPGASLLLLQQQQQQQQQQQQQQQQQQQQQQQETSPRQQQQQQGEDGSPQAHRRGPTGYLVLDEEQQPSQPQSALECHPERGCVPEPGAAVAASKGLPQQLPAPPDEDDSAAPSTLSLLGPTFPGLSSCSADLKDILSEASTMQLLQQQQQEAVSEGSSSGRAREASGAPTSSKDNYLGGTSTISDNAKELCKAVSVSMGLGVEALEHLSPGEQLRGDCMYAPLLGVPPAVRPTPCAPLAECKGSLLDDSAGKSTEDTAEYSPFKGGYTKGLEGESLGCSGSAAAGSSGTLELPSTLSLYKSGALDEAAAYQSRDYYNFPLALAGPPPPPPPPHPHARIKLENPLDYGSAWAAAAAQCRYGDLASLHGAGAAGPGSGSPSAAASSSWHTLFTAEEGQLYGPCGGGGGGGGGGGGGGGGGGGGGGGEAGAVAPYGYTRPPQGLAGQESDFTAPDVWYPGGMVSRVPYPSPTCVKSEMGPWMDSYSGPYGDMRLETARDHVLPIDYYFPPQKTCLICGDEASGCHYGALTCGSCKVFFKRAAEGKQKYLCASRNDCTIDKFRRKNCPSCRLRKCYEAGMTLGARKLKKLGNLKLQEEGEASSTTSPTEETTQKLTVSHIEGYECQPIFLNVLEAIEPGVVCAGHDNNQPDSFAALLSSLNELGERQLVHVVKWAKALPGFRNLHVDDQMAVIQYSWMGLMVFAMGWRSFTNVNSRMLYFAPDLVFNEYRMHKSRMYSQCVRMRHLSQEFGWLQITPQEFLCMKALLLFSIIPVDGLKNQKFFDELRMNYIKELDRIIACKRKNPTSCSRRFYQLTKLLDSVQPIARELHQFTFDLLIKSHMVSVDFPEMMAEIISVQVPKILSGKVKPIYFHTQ
Experiment: Degradation of androgen receptor (AR) protein in VCaP cells by ELISA
Type: cell-based
Details: AR degradation, VCaP cells, 16 h, ELISA, Table 3-2; read-out: DC50

Molecule	DC50
N#Cc1ccc(O[C@H]2CC[C@H](NC(=O)c3cnc(N4CCC(CN5CCC6(CC5)CN(c5cc7c(cc5F)C(=O)N(C5CCC(=O)NC5=O)C7=O)C6)CC4)nn3)CC2)cc1Cl (some centres unmarked) [Compound 158]	< 10 nM

Same assay, conditions: VCaP

Molecule	Dmax
N#Cc1ccc(O[C@H]2CC[C@H](NC(=O)c3cnc(N4CCC(CN5CCC6(CC5)CN(c5cc7c(cc5F)C(=O)N(C5CCC(=O)NC5=O)C7=O)C6)CC4)nn3)CC2)cc1Cl (some centres unmarked) [Compound 158]	> 80%

Molecular target: T1, androgen receptor (AR)
Experiment: Degradation of androgen receptor (AR) protein in VCaP cells by Western blot
Type: cell-based
Details: percentage of degraded AR at 100 nM, VCaP cells, 16 h
Procedure, shortened: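 VCaP cells (5×10^5/well) were seeded overnight, then treated in duplicate for 16 h with compound in 0.1% DMSO final. Lysates (30 μg protein) were immunoblotted for AR (D6F11) with β-actin as loading control, detected by ECL chemiluminescence.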

Molecule	inhibition at 0.1 µM
N#Cc1ccc(O[C@H]2CC[C@H](NC(=O)c3cnc(N4CCC(CN5CCC6(CC5)CN(c5cc7c(cc5F)C(=O)N(C5CCC(=O)NC5=O)C7=O)C6)CC4)nn3)CC2)cc1Cl (some centres unmarked) [Compound 158]	> 80%
N#Cc1ccc(O[C@H]2CC[C@H](NC(=O)c3cnc(N4CC(CN5CC6CN(c7cc8c(cc7F)C(=O)N(C7CCC(=O)NC7=O)C8=O)CC6C5)C4)cn3)CC2)cc1Cl (some centres unmarked) [Compound 138]	25 to 49%
